Assays:
K-562 = assay: NCI five-dose assay; format: cell-based; conditions: Leukemia K-562
RPMI-8226 = assay: NCI five-dose assay; format: cell-based; conditions: Leukemia RPMI-8226
SR = assay: NCI five-dose assay; format: cell-based; conditions: Leukemia SR
A549/ATCC = assay: NCI five-dose assay; format: cell-based; conditions: Non-Small-Cell Lung Cancer A549/ATCC
NCI-H23 = assay: NCI five-dose assay; format: cell-based; conditions: Non-Small-Cell Lung Cancer NCI-H23
NCI-H322M = assay: NCI five-dose assay; format: cell-based, human; conditions: Non-Small-Cell Lung Cancer NCI-H322M
NCI-H460 = assay: NCI five-dose assay; format: cell-based; conditions: Non-Small-Cell Lung Cancer NCI-H460
NCI-H522 = assay: NCI five-dose assay; format: cell-based; conditions: Non-Small-Cell Lung Cancer NCI-H522
SF-268 = assay: NCI five-dose assay; format: cell-based; conditions: Homo sapiens, CNS Cancer SF-268
U251 = assay: NCI five-dose assay; format: cell-based; conditions: CNS Cancer U251
MALME-3M = assay: NCI five-dose assay; format: cell-based; conditions: Homo sapiens, Melanoma MALME-3M
M14 = assay: NCI five-dose assay; format: cell-based; conditions: Homo sapiens, Melanoma M14
MDA-MB-435 = assay: NCI five-dose assay; format: cell-based; conditions: Homo sapiens, Melanoma MDA-MB-435
SK-MEL-5 = assay: NCI five-dose assay; format: cell-based; conditions: Melanoma SK-MEL-5
UACC-257 = assay: NCI five-dose assay; format: cell-based; conditions: Melanoma UACC-257
UACC-62 = assay: NCI five-dose assay; format: cell-based; conditions: Melanoma UACC-62
786-0 = assay: NCI five-dose assay; format: cell-based; conditions: Renal Cancer 786-0
CAKI-1 = assay: NCI five-dose assay; format: cell-based; conditions: Renal Cancer CAKI-1
SN12C = assay: NCI five-dose assay; format: cell-based; conditions: Renal Cancer SN12C
TK-10 = assay: NCI five-dose assay; format: cell-based, human; conditions: Renal Cancer TK-10
UO-31 = assay: NCI five-dose assay; format: cell-based; conditions: Renal Cancer UO-31
PC-3 = assay: NCI five-dose assay; format: cell-based; conditions: Prostate Cancer PC-3
MCF7 = assay: NCI five-dose assay; format: cell-based, human; conditions: Breast Cancer MCF7
MDA-MB-231/ATCC = assay: NCI five-dose assay; format: cell-based; conditions: Breast Cancer MDA-MB-231/ATCC
HS 578T = assay: NCI five-dose assay; format: cell-based; conditions: Breast Cancer HS 578T
BT-549 = assay: NCI five-dose assay; format: cell-based, human; conditions: Breast Cancer BT-549
[1] = system: P-glycoprotein (Pgp) in MDR-SR Leukemia cell line; assay: Multidrug resistance assay (Pgp ELISA); format: cell-based, human; conditions: relative to control
OVCAR-3 = assay: NCI five-dose assay
[2] = Homo sapiens, read-out: GI50 Concentration/Cell Line
[3] = Homo sapiens, read-out: LC50 (the source's name)
[4] = read-out: GI50 Concentration/Cell Line
[5] = read-out: LC50 (the source's name)

Compound: COC(=O)C=C1SC(=NNC(=O)c2cc3ccc2CCc2ccc(cc2)CC3)N(c2ccccc2)C1=O [Compound 3a]
- GI50 (K-562; Homo sapiens, K562, read-out: GI50 Concentration/Cell Line): 3.15 µM
- CC50 (K-562; Homo sapiens, K562, read-out: LC50 (the source's name)): > 100 µM
- TGI Concentration/Cell Line (K-562): >100 µM
- LC50 (RPMI-8226; Homo sapiens): > 100 µM
- GI50 (RPMI-8226; [2]): 2.15 µM
- TGI Concentration/Cell Line (RPMI-8226): 5.69 µM
- GI50 (SR; [2]): 2.46 µM
- CC50 (SR; [3]): > 100 µM
- TGI Concentration/Cell Line (SR): >100 µM
- GI50 (A549/ATCC; [2]): 2.83 µM
- CC50 (A549/ATCC; [3]): > 100 µM
- TGI Concentration/Cell Line (A549/ATCC): 8.00 µM
- LC50 (NCI lethal concentration, 50% cell kill) (NCI-H23; Homo sapiens): 8.85 µM
- GI50 (NCI-H23; [2]): 1.95 µM
- TGI Concentration/Cell Line (NCI-H23): 4.15 µM
- GI50 (NCI-H322M; [2]): 2.02 µM
- TGI Concentration/Cell Line (NCI-H322M): 4.75 µM
- LC50 (50% lethal concentration) (NCI-H460; Homo sapiens): 8.82 µM
- GI50 (NCI-H460; [2]): 2.08 µM
- TGI Concentration/Cell Line (NCI-H460): 4.29 µM
- LC50 (NCI-H522; Homo sapiens): > 100 µM
- GI50 (NCI-H522; [2]): 4.89 µM
- TGI Concentration/Cell Line (NCI-H522): >100 µM
- GI50 (SF-268; [4]): 3.09 µM
- CC50 (SF-268; [5]): > 100 µM
- TGI Concentration/Cell Line (U251): 4.00 µM
- GI50 (U251; Homo sapiens, U-251, read-out: GI50 Concentration/Cell Line): 1.89 µM
- CC50 (U251; Homo sapiens, U-251, read-out: LC50 (the source's name)): 8.47 µM
- GI50 (MALME-3M; [4]): 3.27 µM
- CC50 (MALME-3M; [5]): > 100 µM
- LC50 (M14): > 100 µM
- GI50 (M14; [4]): 3.27 µM
- LC50 (concentration causing 50% net cell kill) (MDA-MB-435): > 100 µM
- GI50 (MDA-MB-435; [4]): 5.44 µM
- LC50 (SK-MEL-5; Homo sapiens): > 100 µM
- GI50 (SK-MEL-5; [2]): 7.56 µM
- TGI Concentration/Cell Line (SK-MEL-5): >100 µM
- LC50 (UACC-257; Homo sapiens): > 100 µM
- GI50 (UACC-257; [2]): 5.14 µM
- TGI Concentration/Cell Line (UACC-257): >100 µM
- GI50 (UACC-62; [2]): 1.96 µM
- CC50 (UACC-62; [3]): 9.02 µM
- TGI Concentration/Cell Line (UACC-62): 4.21 µM
- GI50 (786-0; [2]): 2 µM
- CC50 (786-0; [3]): 9.58 µM
- TGI Concentration/Cell Line (786-0): 4.38 µM
- GI50 (CAKI-1; [2]): 1.52 µM
- CC50 (CAKI-1; [3]): 9.78 µM
- TGI Concentration/Cell Line (CAKI-1): 3.00 µM
- LC50 (SN12C; Homo sapiens): > 100 µM
- GI50 (SN12C; [2]): 2.27 µM
- TGI Concentration/Cell Line (SN12C): 5.94 µM
- GI50 (TK-10; [2]): 2.03 µM
- TGI Concentration/Cell Line (TK-10): 5.60 µM
- LC50 (UO-31; Homo sapiens): 6.2 µM
- GI50 (UO-31; [2]): 1.53 µM
- TGI Concentration/Cell Line (UO-31): 3.08 µM
- LC50 (PC-3; Homo sapiens): 7.7 µM
- GI50 (PC-3; [2]): 1.71 µM
- TGI Concentration/Cell Line (PC-3): 3.63 µM
- TGI Concentration/Cell Line (MCF7): 4.95 µM
- GI50 (MCF7; [2]): 1.87 µM
- TGI Concentration/Cell Line (MDA-MB-231/ATCC): 7.46 µM
- LC50 (MDA-MB-231/ATCC; Homo sapiens): > 100 µM
- GI50 (MDA-MB-231/ATCC; [2]): 2.63 µM
- TGI Concentration/Cell Line (HS 578T): >100 µM
- GI50 (HS 578T; [2]): 3.49 µM
- CC50 (HS 578T; [3]): > 100 µM
- TGI Concentration/Cell Line (BT-549): 5.35 µM
- GI50 (BT-549; [2]): 2.22 µM
- Pgp-Mediated MDR Fold Change [1]: 1.15 fold
- GI50 (OVCAR-3; Homo sapiens, OVCAR-3, read-out: GI50 Concentration/Cell Line): 1.8 µM
- CC50 (OVCAR-3; Homo sapiens, OVCAR-3, read-out: LC50): 7.23 µM
- TGI Concentration/Cell Line (OVCAR-3; Ovarian Cancer OVCAR-3): 3.61 µM

Reference: PMC7411887, “New Paracyclophanylthiazoles with Anti-Leukemia Activity: Design, Synthesis, Molecular Docking, and Mechanistic Studies” (Molecules, 2020)
